Data: ChEMBL document CHEMBL5518174 (Eur J Med Chem, 2024)
Calls of active or inactive are those of the source. The rule behind the calls is not given here.

What was measured:
[1] = biological target: T1, Protein deacetylase HDAC6 (Homo sapiens, UniProt Q9UBN7); experiment: Inhibition of recombinant human HDAC6 using acetylated luminogenic substrate incubated for 10 mins by ultra-glo recombinant firefly luciferase based luminescence assay
T1 sequence (Q9UBN7 whole entry): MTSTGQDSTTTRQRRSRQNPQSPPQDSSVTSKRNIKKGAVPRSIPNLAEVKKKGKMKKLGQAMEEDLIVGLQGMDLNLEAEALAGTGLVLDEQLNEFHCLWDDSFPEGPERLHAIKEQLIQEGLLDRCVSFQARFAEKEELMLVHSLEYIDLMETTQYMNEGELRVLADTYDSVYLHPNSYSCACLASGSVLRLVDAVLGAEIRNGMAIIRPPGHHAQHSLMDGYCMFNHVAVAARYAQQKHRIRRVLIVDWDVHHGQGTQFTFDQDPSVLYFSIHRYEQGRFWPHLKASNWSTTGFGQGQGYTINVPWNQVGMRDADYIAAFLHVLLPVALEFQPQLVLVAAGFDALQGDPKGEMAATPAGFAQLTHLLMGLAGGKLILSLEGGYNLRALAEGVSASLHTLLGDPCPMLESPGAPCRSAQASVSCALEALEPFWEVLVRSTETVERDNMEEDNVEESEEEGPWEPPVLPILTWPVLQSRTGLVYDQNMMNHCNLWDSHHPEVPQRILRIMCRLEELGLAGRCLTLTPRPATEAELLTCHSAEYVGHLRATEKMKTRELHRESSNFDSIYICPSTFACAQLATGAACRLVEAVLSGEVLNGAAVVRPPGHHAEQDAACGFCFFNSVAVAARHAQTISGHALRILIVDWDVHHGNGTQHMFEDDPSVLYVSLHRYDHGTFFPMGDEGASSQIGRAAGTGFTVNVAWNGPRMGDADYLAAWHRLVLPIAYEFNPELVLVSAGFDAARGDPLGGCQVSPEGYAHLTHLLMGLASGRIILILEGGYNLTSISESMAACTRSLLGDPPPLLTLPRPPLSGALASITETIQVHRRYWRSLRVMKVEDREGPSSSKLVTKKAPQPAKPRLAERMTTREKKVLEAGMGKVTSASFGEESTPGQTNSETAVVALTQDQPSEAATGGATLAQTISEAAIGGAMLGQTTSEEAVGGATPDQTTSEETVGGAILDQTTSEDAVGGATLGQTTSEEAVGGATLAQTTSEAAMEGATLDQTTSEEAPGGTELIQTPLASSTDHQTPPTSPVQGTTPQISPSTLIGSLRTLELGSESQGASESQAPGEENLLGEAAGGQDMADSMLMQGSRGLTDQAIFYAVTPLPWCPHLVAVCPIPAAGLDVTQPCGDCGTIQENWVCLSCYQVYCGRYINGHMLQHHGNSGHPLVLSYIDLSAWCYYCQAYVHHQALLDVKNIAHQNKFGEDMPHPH

Histone deacetylase 11 = biological target: T2, Histone deacetylase 11 (Homo sapiens, UniProt Q96DB2); experiment: Inhibition of recombinant human HDAC11 using acetylated luminogenic substrate incubated for 10 mins by ultra-glo recombinant firefly luciferase based luminescence assay
T2 sequence (Q96DB2 whole entry): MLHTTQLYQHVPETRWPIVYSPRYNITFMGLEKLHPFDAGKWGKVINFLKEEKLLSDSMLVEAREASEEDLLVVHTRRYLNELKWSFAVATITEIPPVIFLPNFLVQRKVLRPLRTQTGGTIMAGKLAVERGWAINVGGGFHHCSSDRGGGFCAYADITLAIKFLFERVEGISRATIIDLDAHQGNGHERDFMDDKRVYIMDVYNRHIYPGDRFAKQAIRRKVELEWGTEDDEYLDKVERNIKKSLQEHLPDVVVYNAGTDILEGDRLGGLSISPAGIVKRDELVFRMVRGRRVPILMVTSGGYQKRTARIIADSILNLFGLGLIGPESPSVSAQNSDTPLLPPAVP

[2] = Effect on HDAC1 protein expression in human NCI-H1975 cells assessed as fold change at 0.05 uM incubated for 24 hrs by immunoblotting analysis (reference value: 1); type: functional
[3] = Downregulation of HDAC2 protein expression in human NCI-H1975 cells assessed as fold change at 0.1 uM incubated for 24 hrs by immunoblotting analysis (reference value: 1); type: functional
[4] = Effect on HDAC2 protein expression in human MDA-MB-231 cells assessed as fold change at 0.05 uM incubated for 24 hrs by immunoblotting analysis (reference value: 1); type: functional
[5] = Downregulation of HDAC3 protein expression in human MDA-MB-231 cells assessed as fold change at 0.05 uM incubated for 24 hrs by immunoblotting analysis (reference value: 1); type: functional
[6] = Downregulation of HDAC3 protein expression in human MDA-MB-231 cells assessed as fold change at 0.1 uM incubated for 24 hrs by immunoblotting analysis (reference value: 1); type: functional
[7] = Effect on HDAC4 protein expression in human MDA-MB-231 cells assessed as fold change at 0.05 uM incubated for 24 hrs by immunoblotting analysis (reference value: 1); type: functional
[8] = Downregulation of HDAC7 protein expression in human MDA-MB-231 cells assessed as fold change at 0.05 uM incubated for 24 hrs by immunoblotting analysis (reference value: 1); type: functional
[9] = Downregulation of HDAC9 protein expression in human MDA-MB-231 cells assessed as fold change at 0.1 uM incubated for 24 hrs by immunoblotting analysis (reference value: 1); type: functional
[10] = Downregulation of HDAC6 protein expression in human NCI-H1975 cells assessed as fold change at 0.05 uM incubated for 24 hrs by immunoblotting analysis (reference value: 1); type: functional
[11] = Downregulation of HDAC10 protein expression in human NCI-H1975 cells assessed as fold change at 0.1 uM incubated for 24 hrs by immunoblotting analysis (reference value: 1); type: functional
[12] = Downregulation of HDAC10 protein expression in human MDA-MB-231 cells assessed as fold change at 0.05 uM incubated for 24 hrs by immunoblotting analysis (reference value: 1); type: functional
[13] = Downregulation of HDAC11 protein expression in human MDA-MB-231 cells assessed as fold change at 0.05 uM incubated for 24 hrs by immunoblotting analysis (reference value: 1); type: functional
NCI-H1975 = experiment: Antitumor activity against human NCI-H1975 cells xenografted in athymic nude BALB/c mouse assessed as cell apoptosis in tumor region at 6 mg/kg, ip administered 5 times a week for 3 weeks and measured on day 22 by TUNEL assay; type: functional, organism-based; conditions: time 22.0 day
[14] = Toxicity in athymic nude BALB/c mouse xenografted with human NCI-H1975 cells assessed as effect on AST level at 6 mg/kg, ip administered 5 times a week for 3 weeks and measured on day 22; type: organism-based; conditions: in vivo, 528 h, time 22 day
[15] = Toxicity in athymic nude BALB/c mouse xenografted with human MDA-MB-231 cells assessed as effect on ALT level in serum at 3 mg/kg, ip administered 5 times a week for 7 weeks; type: organism-based; conditions: in vivo, 1176 h
[16] = Toxicity in athymic nude BALB/c mouse xenografted with human MDA-MB-231 cells assessed as effect on creatinine level in serum at 3 mg/kg, ip administered 5 times a week for 7 weeks; type: organism-based; conditions: in vivo, 1176 h

For `CCOc1ccc(-c2nc(C(=O)NCc3ccc(C(=O)NO)cc3)c3[nH]c(=O)n(-c4cccnc4OC)c3n2)cn1`, the IC50 [1] was 10.8 nM, the IC50 (Histone deacetylase 11) was 49.9 nM and the “fold change (FC)” value [2] was 1.44. For the same compound, the “fold change (FC)” value [3] was 0.69, the “fold change (FC)” value [4] was 1.18 and the “fold change (FC)” value [5] was 0.82. The “fold change (FC)” value [6] was 0.65, the “fold change (FC)” value [7] was 1.15 and the “fold change (FC)” value [8] was 0.77. For the same compound, the “fold change (FC)” value [9] was 0.94, the “fold change (FC)” value [10] was 0.6 and the “fold change (FC)” value [11] was 0.9. For the same compound, the “fold change (FC)” value [12] was 0.89, the “fold change (FC)” value [13] was 0.53 and the Activity (NCI-H1975) was “Active”. The Activity [14] was “Non-Toxic”, the Activity [15] was “Non-Toxic” and the Activity [16] was “Non-Toxic”.
